Source: patent US20190133997A1, “ARTEMISININ ANALOG, AND USE, METHOD, AND COMPOSITION FOR PROMOTING LIPID CATABOLISM AND IMPROVING SUGAR METABOLISM” (FUDAN UNIVERSITY, priority 2016, published 2019)

Columns and labels:
high fat-fed mice [1] = test: Subcutaneous artemether, cold exposure and UCP1 immunohistochemistry of subcutaneous fat in high fat-fed mice; format: in vivo, Male C57BL/6J mice; conditions: high-fat diet, subcutaneous injection, eight weeks
Experimental: The mice were breeded in the SPF animal laboratory of the Laboratory Animal Center of Fudan University at a room temperature of 21° C.-23° C. with a 12-hour light/dark cycle. […] When the mice were grown to 8-week old, they were randomly divided into a control group and an administration group, with 8 mice in each group. While the mice were fed with a high-fat diet, artemether was injected subcutaneously. Artemether was diluted in PBS at a concentration of […], and injected into bilateral inguinal region, with 200 μl being injected into each side. Mice in control group were injected with the same volume of PBS. Administration was continued for eight weeks. Mice were fasted and housed in a breeding box at 4° C. The rectal temperature was measured every 2 hours. The mice were sacrificed by cervical dislocation after 6 hours, and the inguinal fat was removed for histological analysis. The histological analysis including tissue fixation, paraffin embedding, sectioning and immunohistochemistry experiment of UCP1 was commissioned by Shanghai Saige Biotech Co., Ltd.

[2] = Intraperitoneal artemether 20 mg/kg, liver damage in healthy mice (HE staining); format: in vivo, Male C57BL/6J mice
Experimental: The mice were breeded in the SPF animal laboratory of the Laboratory Animal Center of Fudan University at a room temperature of 21° C.-23° C. with a 12-hour light/dark cycle. When the mice were grown to 8-week old, they were randomly divided into a control group and an administration group, with 8 mice in each group. Mice in administration group were injected intraperitoneally with artemether. Artemether for intraperitoneal injection was stored at 4° C. in coconut oil at a storage concentration of 6 mg/ml (20 mMol/L), and protected from light. Mice in administration group were injected with artemether at a dose of 20 mg/kg weight. Mice in control group were injected 100 μl coconut oil. Administration was twice a week for eight weeks. The mice were sacrificed by cervical dislocation, and liver tissues of mice were removed and fixed. Liver tissue fixation, paraffin embedding, sectioning and HE staining was commissioned by Shanghai Saige Biotech Co., Ltd.

high fat-fed mice [3] = test: Intraperitoneal artemether, serum lipid indicators in high-fat diet mice; format: in vivo, Male C57BL/6J mice; conditions: intraperitoneal 20 mg/kg twice a week, eight weeks
Experimental: (§1) The mice were breeded in the SPF animal laboratory of the Laboratory Animal Center of Fudan University at a room temperature of 21° C.-23° C. with a 12-hour light/dark cycle. […] When the mice were grown to 8-week old, they were randomly divided into a control group and an administration group, with 8 mice in each group. While the mice were fed with a high-fat diet, artemether was injected intraperitoneally. Artemether for intraperitoneal injection was stored at 4° C. in coconut oil at a storage concentration of 6 mg/ml (20 mMol/L), and protected from light. Mice in administration group were injected with artemether at a dose of 20 mg/kg weight. Administration was twice a week for eight weeks.
The mice were anesthetized with 10% chloral hydrate and blood was taken from the orbit. The whole blood was centrifuged at 300 rpm for 5 min at 4° C.
Serum was taken and the serum indicators were measured by lipid calibrator Cfas Lipid, high-density lipoprotein Cfas, and low density lipoprotein Cfas, as well as detection kits for related indicators.

high fat-fed mice [4] = test: Intraperitoneal artemether, adipose tissue in high fat-fed mice; format: in vivo, Male C57BL/6J mice; conditions: high-fat diet, intraperitoneal 20 mg/kg twice a week, eight weeks
Experimental: as §1, with “weeks. The mice were sacrificed by cervical dislocation and were dissected, and inguinal fat (Inguinal, subcutaneous fat), epididymal fat (Gonadal, visceral fat) and brown fat in the interscapular region (BAT, classic brown fat) were removed, weighed and fixed. The histological analysis of adipose tissue was commissioned by Shanghai Saige Biotech Co., Ltd., which included the steps of fixing, paraffin embedding, sectioning and HE staining.” for “weeks.”

[5] = rodent models, high concentrations; no clear evidence of dose and timing; cited from earlier work
[6] = system: obese mice induced by high-fat diet; test: Intraperitoneal artemether, random blood glucose, glucose and insulin tolerance in high-fat diet obese mice; format: in vivo, Male C57BL/6J mice; conditions: intraperitoneal 20 mg/kg twice a week, eight weeks
Experimental: as §1
The mice were fasted for 12-16 hours and injected intraperitoneally with glucose injection at a dose of […]. At 0 min, 30 min, 60 min, 90 min, and 120 min after injection, blood was collected from the tail vein, and blood glucose was measured with OneTouch ExtraEasy glucometer and OneTouch ExtraEasy blood glucose test strips and the results were recorded.
Insulin was injected intraperitoneally at a dose of 0.75 U/kg weight. At 0 min, 15 min, 30 min, 45 min and 60 min after injection, blood was collected from the tail vein, and blood glucose was measured.
The mice were anesthetized with 10% chloral hydrate and blood was taken from the orbit. The whole blood was centrifuged at 300 rpm for 5 min at 4° C. Serum was taken and the blood glucose levels were measured by automatic biochemical analyzer and calibrator for blood glucose Cfas and kit (Roche).

CO[C@H]1O[C@@H]2O[C@@]3(C)CC[C@H]4[C@H](C)CC[C@@H]([C@H]1C)[C@@]24OO3 [artemether]
body temperature in an environment of 4° C. (high fat-fed mice [1]): significantly higher than that of mice in control group
UCP1 expression in subcutaneous fat (immunohistochemistry) (high fat-fed mice [1]; after 6 hours at 4° C.): exhibited significant UCP1 expression
morphology of liver cells ([2]; healthy lean mice, intraperitoneal 20 mg/kg twice a week, eight weeks): normal, and had no difference from that of mice in control group
hepatotoxicity ([2]; intraperitoneal 20 mg/kg weight twice a week for eight weeks): no hepatotoxicity
Serum cholesterol (high fat-fed mice [3]): significantly decreased
high-density lipoprotein (HDL) in the serum (high fat-fed mice [3]): not different from the control group
serum low density lipoprotein (LDL) (high fat-fed mice [3]): significantly decreased
triglyceride in the serum (high fat-fed mice [3]): not different from the control group
adipocyte size (sectioning and HE staining) (high fat-fed mice [4]): significantly smaller than that of mice in control group
volume of adipose tissue (high fat-fed mice [4]): significantly smaller than that of mice in control group
weight of adipose tissue (high fat-fed mice [4]): significantly smaller than that of mice in control group
anorexia nervosa [5]: would cause anorexia nervosa
glucose tolerance [6]: significantly better than that of mice in control group
insulin sensitivity [6]: significantly better than that of mice in control group
random blood glucose [6]: significantly lower than that of mice in control group
